Consider three molecules from the NIST ThermoML archive (doi:10.1016/j.fluid.2014.12.036).

Each structure is given as a SMILES string. ± gives the expanded uncertainty stated by the source.

The conditions of the data set: Crystal; visual observation.
For the molecule `CCCCCCCCCCCCCCCC` [hexadecane], the Normal melting temperature came to 18.4 ± 0.4 °C.
The value for `CCCCCCCCCCCCCCCCCC` [octadecane] was 28.5 ± 0.4 °C; that for `CCCCCCCCCCCCCC` [tetradecane] was 6.2 ± 0.4 °C.
